Biological target: T1, human FFAR1 (GPR40) (Homo sapiens, UniProt O14842)
T1 construct: Flag; expressed in transfected cells; host or cells: HEK293T
Test: NFAT-RE-based reporter gene activity assay (Dual-Glo luciferase) for GPR40 agonistic activity in co-transfected HEK293T cells
Format: cell-based
Conditions: 4-hour treatment
Text: The pcDNA3.0-flag-FFAR1 (GPR40) plasmid was constructed using conventional molecular cloning methods. The main steps were as follows: The full-length cDNA sequence of human FFAR1 (GPR40) (NM_005303.3) was inserted into the HindIII and XbaI restriction sites of the pcDNA3.0 vector via PCR technology, resulting in the pcDNA3.0-flag-FFAR1 (GPR40) plasmid; pGL4.30 [luc2P NFAT-RE] (# E8481) and pRL-TK (#E2241) plasmids were both purchased from Promega; the plasmids were transformed into DH5α E. coli using the CaCl2 method, further cultured and amplified, and then purified using a plasmid extraction kit (TIANGEN, # DP117) to obtain the corresponding plasmid DNA.
HEK293T cells were seeded in a 96-well plate at a density of 1 × 10^4/well one day prior to plasmid transfection. Cell transfection was performed according to the instructions of the transfection reagent FuGENE® HD (Promega, # E2311). The main steps were as follows: Taking one well as an example, plasmids pcDNA3.0-flag-FFAR1 (GPR40), pGL4.30 [luc2P NFAT-RE], and pRL-TK were added at ratios of 50 ng, 50 ng, and 5 ng, respectively, into 10 µL of Opti-MEM™ I medium (Gibco, #11058021) and mixed thoroughly; then, 0.2 µL of FuGENE® HD was added, mixed thoroughly, and allowed to stand at room temperature for 5 minutes; finally, this 10 µL mixture was added to the cell well containing 100 µL of culture medium. 24 hours after co-transfection, the compounds were serially diluted at half-logarithmic intervals with 1 µM as the highest concentration, resulting in 10 concentration gradients, which were added to the cell culture medium for a 4-hour treatment.
After 4 hours of compound treatment, the cells were assayed according to the instructions of the Dual-Glo® Luciferase Assay System (Promega, # E2940). The main steps were as follows: 50 µL of culture medium was aspirated from each well and discarded, followed by the addition of 50 µL of Dual-Glo® Luciferase Reagent, and the mixture was shaken at room temperature for 10 minutes. Then, 80 µL of the lysate reaction solution was transferred to a white opaque optiPlate-96 well plate, and the luminescence signal of Firefly luciferase (Firefly-Luc) was measured using an MD i3x multifunctional microplate reader. Subsequently, 40 µL of Dual-Glo® Stop & Glo® Reagent was added, and the mixture was shaken at room temperature for 10 minutes. Finally, the luminescence signal of Renilla luciferase (Renilla-Luc) was measured using the MD i3x multifunctional microplate reader. The ratio of Firefly-Luc/Renilla-Luc was used as the compound's agonistic activity toward GPR40, and normalization was performed using the ratio of the solvent DMSO group. A dose-response curve was fitted using a four-parameter model with GraphPad Prism 8.0 software to calculate the EC50 value.

T1 sequence (O14842 whole entry): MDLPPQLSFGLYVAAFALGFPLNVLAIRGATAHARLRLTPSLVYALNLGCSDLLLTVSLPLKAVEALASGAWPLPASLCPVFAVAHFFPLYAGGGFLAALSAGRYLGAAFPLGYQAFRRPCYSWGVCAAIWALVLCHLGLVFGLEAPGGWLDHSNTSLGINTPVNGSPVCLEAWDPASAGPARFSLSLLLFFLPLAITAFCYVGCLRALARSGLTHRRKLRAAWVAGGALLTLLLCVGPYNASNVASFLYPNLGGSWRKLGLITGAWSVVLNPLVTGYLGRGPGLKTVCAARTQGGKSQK

Row | SMILES | EC50 [nM] | Efficacy (%) (class symbols) | Efficacy (%) (numeric values of positive controls)
1 | COc1cccc(N2CCC(c3oc4cc(C(CC(=O)O)C5CC5)ccc4c3-c3csc(C)c3)CC2)c1 (stereo not drawn) [Compound 35] | 100 to 500 | †† (150 ≥ Efficacy (%) > 100) | 
2 | COc1cccc(N2CCC(c3oc4cc(C(CC(=O)O)C5CC5)ccc4c3C(=O)NC34CC5CC(CC(C)(C5)C3)C4)CC2)c1 (stereo not drawn) [Compound 353] | 100 to 500 | ††† (Efficacy (%) > 150) | 
3 | COc1cccc(N2CCC(c3oc4cc([C@@H](CC(=O)O)C5CC5)ccc4c3C(=O)Nc3cc(C(C)=O)ccc3Cl)CC2)c1 [Compound 283] | 10 to 100 | ††† (Efficacy (%) > 150) | 
4 | COc1cccc(N2CCC(c3oc4cc([C@@H](CC(=O)O)C5CC5)ccc4c3C(CCC(C)C)c3ccccc3)CC2)c1 (stereo partly drawn) [Compound 387] | 10 to 100 | †† (150 ≥ Efficacy (%) > 100) | 
5 | O=C(O)C[C@H](c1ccc2c(C(=O)Nc3cc(F)ccc3Br)c(C3CCN(c4ccc5c(c4)OCO5)CC3)oc2c1)C1CC1 [Compound 334] | ≤ 10 | †† (150 ≥ Efficacy (%) > 100) | 
6 | COc1cccc(N2CCC(c3oc4cc(C(CC(=O)O)C5CC5)ccc4c3-c3nnc(C(C)(C)C)o3)CC2)c1 (stereo not drawn) [Compound 124] | 10 to 100 | †† (150 ≥ Efficacy (%) > 100) | 
7 | COc1cccc(N2CCC(c3oc4cc([C@@H](CC(=O)O)C5CC5)ccc4c3C(C)OCC3CCC3)CC2)c1 (stereo partly drawn) [Compound 418] | 10 to 100 | ††† (Efficacy (%) > 150) | 
8 | COc1cccc(N2CCC(c3oc4cc(C(CC(=O)O)C5CC5)ccc4c3C(=O)NC3CCCCC3)CC2)c1 (stereo not drawn) [Compound 344] | 100 to 500 | †† (150 ≥ Efficacy (%) > 100) | 
9 | COc1ccc(C(=O)N(CC(C)(C)C)c2cccc(C)n2)c(N2CCC(COc3cc([C@@H](CC(=O)O)C4CC4)ccn3)CC2)c1 [SCO-267, SCO267, reference compound] | 10 to 100 |  | 100
10 | CCC(C)(C)c1nnc(-c2c(C3CCN(c4cccc(OC)c4)CC3)oc3cc(C(CC(=O)O)C4CC4)ccc23)o1 (stereo not drawn) [Compound 128] | 10 to 100 | †† (150 ≥ Efficacy (%) > 100) | 
11 | CC(C)(C)c1cccc(-c2c(C3CCN(c4ccccc4Cl)CC3)oc3cc(C(CC(=O)O)C4CC4)ccc23)c1 (stereo not drawn) [Compound 22] | 100 to 500 | †† (150 ≥ Efficacy (%) > 100) | 
12 | COc1cccc(N2CCC(c3oc4cc([C@@H](CC(=O)O)C5CC5)ccc4c3C(C)OCc3cccs3)CC2)c1 (stereo partly drawn) [Compound 421] | 100 to 500 | ††† (Efficacy (%) > 150) | 
13 | O=C(O)C[C@H](c1ccc2c(C(=O)Nc3ccccc3F)c(C3CCN(c4ccc5c(c4)OCO5)CC3)oc2c1)C1CC1 [Compound 331] | 100 to 500 | †† (150 ≥ Efficacy (%) > 100) | 
14 | COc1cccc(N2CCC(c3oc4cc(C(CC(=O)O)C5CC5)ccc4c3Cc3nnc(C(C)(C)C)o3)CC2)c1 (stereo not drawn) [Compound 450] | 100 to 500 | † (100 ≥ Efficacy (%) > 50) | 
15 | COc1ccc(F)c(N2CCC(c3oc4cc(C(CC(=O)O)C5CC5)ccc4c3-c3cccc(N(C(C)=O)C(C)C)c3)CC2)c1 (stereo not drawn) [Compound 191] | 100 to 500 | †† (150 ≥ Efficacy (%) > 100) | 
16 | Cc1cccc(-c2c(C3CCN(c4ccc5c(c4)OCO5)CC3)oc3cc(C(CC(=O)O)C4CC4)ccc23)c1 (stereo not drawn) [Compound 210] | 100 to 500 | †† (150 ≥ Efficacy (%) > 100) | 
17 | CC(C)(C)c1ccc(-c2c(C3CCN(c4ccc5ccoc5c4)CC3)oc3cc(C(CC(=O)O)C4CC4)ccc23)cc1 (stereo not drawn) [Compound 209] | 100 to 500 | †† (150 ≥ Efficacy (%) > 100) | 
18 | COc1cccc(N2CCC(c3oc4cc([C@@H](CC(=O)O)C5CC5)ccc4c3C(=O)Nc3cc(F)ccc3Cl)CC2)c1 [Compound 266] | < 10 | †††† | 
19 | COc1ccc(Cl)c(N2CCC(c3oc4cc(C(CC(=O)O)C5CC5)ccc4c3-c3cnn(C(C)(C)C)c3)CC2)c1 (stereo not drawn) [Compound 90] | 100 to 500 | † (100 ≥ Efficacy (%) > 50) | 
20 | CCc1cccc(N2CCC(c3oc4cc(C(CC(=O)O)C5CC5)ccc4c3-c3ccc(C(C)(C)C)cc3)CC2)c1 (stereo not drawn) [Compound 6] | > 500 | †† (150 ≥ Efficacy (%) > 100) | 

Row | SMILES | EC50 [nM] | Efficacy (%) (class symbols) | Efficacy (%) (numeric values of positive controls)
21 | CCOC(C)c1c(C2CCN(c3cccc(OC)c3)CC2)oc2cc([C@@H](CC(=O)O)C3CC3)ccc12 (stereo partly drawn) [Compound 407] | 100 to 500 | ††† (Efficacy (%) > 150) | 
22 | COc1cccc(N2CCC(c3oc4cc(C(CC(=O)O)C5CC5)ccc4c3C(=O)NC34CC5CC(CC(C5)C3)C4)CC2)c1 (stereo not drawn) [Compound 349] | 100 to 500 | †† (150 ≥ Efficacy (%) > 100) | 
23 | COc1cccc(N2CCC(c3oc4cc([C@@H](CC(=O)O)C5CC5)ccc4c3C(=O)Nc3ccccc3F)CC2)c1F [Compound 323] | ≤ 10 | †† (150 ≥ Efficacy (%) > 100) | 
24 | COc1cccc(N2CCC(c3oc4cc(C(CP(=O)(O)OC)C5CC5)ccc4c3-c3cnn(C(C)(C)C)c3)CC2)c1 (stereo not drawn) [Compound 70] | > 500 | †† (150 ≥ Efficacy (%) > 100) | 
25 | COc1ccc(F)c(N2CCC(c3oc4cc([C@@H](CC(=O)O)C5CC5)ccc4c3CC=C(C)C)CC2)c1 [Compound 372] | 100 to 500 | †† (150 ≥ Efficacy (%) > 100) | 
26 | COc1cccc(N2CCC(c3oc4cc(C(CC(=O)O)C5CC5)ccc4c3C(=O)Nc3cccc(C)c3F)CC2)c1 (stereo not drawn) [Compound 250] | 100 to 500 | †† (150 ≥ Efficacy (%) > 100) | 
27 | COc1cccc(N2CCC(c3oc4cc(C(CC(=O)O)C5CC5)ccc4c3-c3ncc(C(C)C)s3)CC2)c1 (stereo not drawn) [Compound 111] | 10 to 100 | ††† (Efficacy (%) > 150) | 
28 | COc1ccc(F)c(N2CCC(c3oc4cc([C@@H](CC(=O)O)C5CC5)ccc4c3-c3ccc(C(C)OC)cc3)CC2)c1 (stereo partly drawn) [Compound 176] | 100 to 500 | †† (150 ≥ Efficacy (%) > 100) | 
29 | COc1cccc(N2CCC(c3oc4cc(C(CC(=O)O)C5CC5)ccc4c3C(=O)Nc3nccs3)CC2)c1 (stereo not drawn) [Compound 290] | 100 to 500 | †† (150 ≥ Efficacy (%) > 100) | 
30 | COc1ccccc1C(C)N1CCC(c2oc3cc(C(CC(=O)O)C4CC4)ccc3c2C(=O)Nc2ccccc2F)CC1 (stereo not drawn) [Compound 328] | > 500 | †† (150 ≥ Efficacy (%) > 100) | 
31 | COc1cccc(N2CCC(c3oc4cc([C@@H](CC(=O)O)C5CC5)ccc4c3-c3cc(C(C)(C)C)no3)CC2)c1 [Compound 116] | ≤ 10 | †† (150 ≥ Efficacy (%) > 100) | 
32 | COc1cccc(N2CCC(c3oc4cc(C(CC(=O)O)C5CC5)ccc4c3C(=O)Nc3cccc(N(C)C)c3)CC2)c1 (stereo not drawn) [Compound 246] | 100 to 500 | †† (150 ≥ Efficacy (%) > 100) | 
33 | COc1cccc(N2CCC(c3oc4cc([C@@H](CC(=O)O)C5CC5)ccc4c3C(=O)Nc3ccccc3F)CC2)c1 [Compound 234] | ≤ 10 | †† (150 ≥ Efficacy (%) > 100) | 
34 | COc1cccc(N2CCC(c3oc4cc([C@@H](CC(=O)O)C5CC5)ccc4c3-c3cc4cccc(F)c4[nH]3)CC2)c1 [Compound 151] | 100 to 500 | †† (150 ≥ Efficacy (%) > 100) | 
35 | COc1cccc(N2CCC(c3oc4cc([C@@H](CC(=O)O)C5CC5)ccc4c3CNCC(C)(C)C)CC2)c1 [Compound 435] | 10 to 100 | †† (150 ≥ Efficacy (%) > 100) | 
36 | C=C(C)c1ccc(-c2c(C3CCN(c4cccc(OC)c4)CC3)oc3cc(C(CC(=O)O)C4CC4)ccc23)cc1 (stereo not drawn) [Compound 30] | 100 to 500 | †† (150 ≥ Efficacy (%) > 100) | 
37 | COc1ccc(C(=O)Nc2cccc(C)n2)c(N2CCC(c3oc4cc(C(CC(=O)O)C5CC5)ccc4c3-c3cnn(C(C)(C)C)c3)CC2)c1 (stereo not drawn) [Compound 94] | 100 to 500 | † (100 ≥ Efficacy (%) > 50) | 
38 | Cc1ccccc1N1CCC(c2oc3cc(C(CC(=O)O)C4CC4)ccc3c2-c2cccc(C(C)(C)C)c2)CC1 (stereo not drawn) [Compound 5] | 100 to 500 | ††† (Efficacy (%) > 150) | 
39 | CC(C)(C)c1cccc(-c2c(C3CCN(c4ccc(F)cc4)CC3)oc3cc(C(CC(=O)O)C4CC4)ccc23)c1 (stereo not drawn) [Compound 7] | 100 to 500 | †† (150 ≥ Efficacy (%) > 100) | 

— patent publication EP4682145A1, “BENZOHETEROCYCLIC COMPOUND, AND PREPARATION METHOD THEREFOR AND USE THEREOF” (Cascade Pharmaceuticals, Inc., priority 2023, dated 2024)
